This is an account of results in ChEMBL document CHEMBL1137557, “Geometry of GPPE binding to picrate and to the urokinase type plasminogen activator” (Bioorg Med Chem Lett, 2007).

pKi: −log10 of the molar value. A value given as a limit tells only on which side of the number the result lay.

Assay [1] concerns the target Urokinase-type plasminogen activator (Homo sapiens, UniProt P00749). As to the kind of experiment: Inhibition of uPA.
For assay [2], the target named is Tissue-type plasminogen activator (Homo sapiens, UniProt P00750). As to the kind of experiment: Inhibition of tPA.
The target in another assay is Trypsin (Homo sapiens, UniProt P07477+P07478+P35030). As to the kind of experiment: Inhibition of trypsin. Type of assay: protein assay.

Tissue-type plasminogen activator, sequence (P00750 whole entry): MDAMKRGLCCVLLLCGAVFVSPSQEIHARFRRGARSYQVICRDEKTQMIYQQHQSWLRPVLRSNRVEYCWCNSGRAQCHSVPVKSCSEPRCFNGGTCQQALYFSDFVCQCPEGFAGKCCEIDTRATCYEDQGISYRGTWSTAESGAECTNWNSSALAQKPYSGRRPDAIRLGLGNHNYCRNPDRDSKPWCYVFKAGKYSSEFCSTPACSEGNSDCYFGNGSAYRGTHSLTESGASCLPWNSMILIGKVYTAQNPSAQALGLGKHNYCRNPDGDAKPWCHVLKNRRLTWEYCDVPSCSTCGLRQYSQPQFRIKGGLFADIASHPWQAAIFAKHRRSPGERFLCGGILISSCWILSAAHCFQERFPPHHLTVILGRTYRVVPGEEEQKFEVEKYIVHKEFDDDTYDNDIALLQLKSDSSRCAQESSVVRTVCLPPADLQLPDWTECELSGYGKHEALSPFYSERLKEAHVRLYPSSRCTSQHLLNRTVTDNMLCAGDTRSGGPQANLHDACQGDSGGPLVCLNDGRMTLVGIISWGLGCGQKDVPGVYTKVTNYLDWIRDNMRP

The term pKi denotes −log10 of the Ki, conventionally taken in molar units. Low readings indicate a high Ki, high ones a low Ki. The Ki is the dissociation constant of the complex between target and ligand, obtained from inhibition or displacement. Read a low Ki as a stronger hold on the target. Take `N=C(N)Nc1ccc(CC(=O)c2ccccc2)cc1`: the figures for the pKi in assay [1] and in assay [2] were 4.47 and below 3.00, respectively. For the same compound, the Ki at Trypsin turned out to be 160 µM.
